Source: US20080269666A1, “Microneedles and Methods for Microinfusion” (GEORGIA TECH RESEARCH CORPORATION, priority 2005, published 2008)

Assays:
diabetic hairless rats = test: Blood glucose in diabetic hairless rats after insulin microinfusion through a hollow microneedle; assay type: in vivo, rat
Protocol: During insulin delivery experiments, rats were anesthetized. Microneedle infusion was carried out as described in Example 4, using clinical insulin solution (100 U/ml, Humulin R, Eli Lilly, Indianapolis, Ind.), and FITC-labeled insulin in PBS (1 mg/ml, Sigma).
As a companion experiment, insulin was microinjected into the skin of diabetic hairless rats in vivo and blood glucose concentration was monitored over time. Microinjection was carried out via microneedle insertion to a depth of 500-800 μm and infusing for 30 min. The volume of insulin solution microinjected into diabetic rat skin was 5±1 μl over the 30-min infusion period. Over a 4.5-h monitoring period after infusion, blood glucose level dropped and then plateaued at approximately 25% below pre-treatment values. […] Data expressed as mean±SEM.
Recognizing that needle retraction can increase microinfusion, the insulin delivery experiment was repeated by inserting microneedles to the same initial depth in the skin and then retracting by 150-200 μm back toward the skin surface. […] The volume of insulin solution microinjected into diabetic rat skin after needle retraction was 29±12 μl over the 30-min infusion period. […]

[1] = Effect of hyaluronidase on microneedle infusion flow rate into human cadaver skin in vitro; details: 200 U/ml hyaluronidase in sulforhodamine solution vs without; bevel-tip microneedle inserted 1080 μm; 138 kPa; ANOVA p≦0.01
Protocol: To measure flow rate into skin during microneedle infusion, a single microneedle was inserted into human cadaver skin to microinfuse sulforhodamine solution and the infusion flow rate was measured over time. As an aid to visualizing flow into skin, sulforhodamine-B dye (Molecular Probes, Eugene, Oreg.) was added to PBS, stirred, and filtered (0.2 μm pore size, Nalge Nunc International, Rochester, N.Y.) to make 1×10^−3 M sulforhodamine solution. […]
The flow rate of sulforhodamine solution microinjection was determined by following movement of the gas-liquid meniscus in the syringe reservoir over time with a digital video camera (DCR-TRV460, Sony, Tokyo, Japan) and image analysis software (Adobe Photoshop 7.0, Adobe Systems, San Jose, Calif.) after converting the captured movie into sequences of still images (Adobe Premiere 6.0, Adobe Systems). […]
The effect of hyaluronidase was determined by comparing to an infusion fluid containing 200 U/ml hyaluronidase prepared by mixing 3 ml of hyaluronidase solution (Vitrase™, 200 U/ml, ISTA Pharmaceuticals, Irvine, Calif.) with 7 mL of 1×10^−3 M sulforhodamine solution. […] Microinfusion flow rate was measured as a function of retraction distance during infusion in the absence (white bars) or presence (black bars) of hyaluronidase. Data are expressed as mean values (n≧3) with standard deviation bars. […]

[2] = Fluorescence microscopy of skin distribution after microinjection into hairless rat skin; assay type: in vivo
Source text: FIG. 17A-B are micrographs showing hairless rat skin microinjected in vivo with FITC-insulin. Histological sections are shown using brightfield microscopy with H&E staining (FIG. 17A) and fluorescence microscopy showing injection and distribution of insulin in the skin (FIG. 17B). Scale bar=100 μm. Single, hollow, glass microneedles were inserted into the back skin of anesthetized rats placed in a prone position or into human cadaver skin (2×2 cm^2) placed on a x-y stage. Compounds delivered included blue tissue-marking dye in PBS (20% v/v, Shandon, Pittsburg, Pa.), green-fluorescent calcein in PBS (10 μM-10 mM, Molecular Probes, Eugene, Oreg.). After microinfusion experiments, skin samples were preserved as described in Example 1. Histological sections of skin were examined by stereoscopic (SZX12, Olympus, Melville, N.Y.) and fluorescence microscopy (IX 70, Olympus). Images were recorded by a digital camera (Spot RT Slider camera, Model 231, Diagnostic Instruments, Sterling Heights, Mich.) and analyzed using image analysis software (Image Pro Plus, version 4.5, Media Cybernetics, Silver Spring, Md.). The volume of injected liquid was imaged in the skin for quantitative analysis using one of three different methods. […] During insulin delivery experiments, rats were anesthetized. […]

Compound: insulin
- blood glucose level drop below pre-treatment values (diabetic hairless rats; microneedle inserted 500-800 μm, no retraction, 30-min infusion of 100 U/ml insulin solution (5±1 μl injected), 4.5-h monitoring after infusion, plateau): approximately 25%
- blood glucose level drop below pre-treatment values (diabetic hairless rats; microneedle inserted to same depth then retracted 150-200 μm, 30-min infusion of 100 U/ml insulin solution (29±12 μl injected)): approximately 70%

Compound: hyaluronidase
- increase in infusion flow rate [1]: 7 fold

Compound: O=C(O)CN(CC(=O)O)Cc1cc2c(cc1O)Oc1cc(O)c(CN(CC(=O)O)CC(=O)O)cc1C21OC(=O)c2ccccc21 [calcein]
- distribution in skin after microinjection (fluorescence) ([2]; injection at a specific location within the dermis, histological sections): fluoresced more uniformly in both dermis and epidermis

Compound: fluorescently labeled insulin: FITC-labeled insulin in PBS (1 mg/ml, Sigma)
- distribution in skin after microinjection (fluorescence) ([2]; rat, in vivo): distribute throughout the dermis
